{"source": "paper PMC9306950", "about": "(Clinical Pharmacology in Drug Development, 2022)", "key": {"[1]": {"test": "Safety: treatment-emergent adverse events in study CL-0537", "type": "in vivo, healthy subjects"}, "[2]": {"test": "Safety: treatment-emergent adverse events in study CL-0538", "type": "in vivo, healthy subjects"}, "[3]": {"test": "Safety and tolerability across the 3 studies", "type": "in vivo, healthy subjects", "conditions": "roxadustat 200 mg, observation periods of the 3 studies"}, "CYP2C8": {"test_system": "CYP2C8", "conditions": "read-out: inhibition constant (Ki); in vitro; cited from earlier work"}, "[4]": {"conditions": "cited from earlier work"}}, "data": [{"smiles": "Cc1nc(C(=O)NCC(=O)O)c(O)c2ccc(Oc3ccccc3)cc12", "note": "[Roxadustat]", "values": [{"measurement": "TEAE headache, subjects", "setting": "[1]; CL-0537", "result": 7.1, "unit": "%"}, {"measurement": "TEAE nasopharyngitis, subjects", "setting": "[1]; CL-0537", "result": 0.0, "unit": "%"}, {"measurement": "number of TEAEs considered related to the study drug", "setting": "[1]; investigator assessment", "result": 4}, {"measurement": "subjects with TEAEs considered related to the study drug", "setting": "[1]; investigator assessment", "result": "4 (14.3%) n (%)"}, {"measurement": "TEAE dry mouth, subjects", "setting": "[2]; CL-0538", "result": 8.3, "unit": "%"}, {"measurement": "TEAE headache, subjects", "setting": "[2]; CL-0538", "result": 4.2, "unit": "%"}, {"measurement": "number of TEAEs considered possibly related to the study drug", "setting": "[2]; investigator assessment", "result": 3}, {"measurement": "subjects with TEAEs considered possibly related to the study drug", "setting": "[2]; investigator assessment", "result": "2 (8.3%) n (%)"}, {"measurement": "deaths, serious TEAEs, AEs leading to discontinuation", "setting": "[3]", "result": "did not result in any deaths, serious TEAEs, or AEs leading to discontinuation of study drug"}, {"measurement": "Ki", "setting": "CYP2C8", "result": 16, "unit": "µM"}, {"measurement": "terminal elimination half-life (t1/2)", "setting": "[4]; after single-dose oral administration, healthy subjects", "result": "≈ 12 hours"}, {"measurement": "time to maximum plasma concentrations (Cmax) after dosing", "setting": "[4]; fasted state", "result": "≤ 2", "unit": "h"}, {"measurement": "time to reach maximum plasma concentration (Cmax)", "setting": "[4]; oral, healthy subjects", "result": "≤ 2", "unit": "h"}]}]}
